Assays:
[1] = target: BaF3(WT) (Homo sapiens, UniProt P00519); test: WST (CCK-8) anti-proliferative assay, BaF3 WT; conditions: read-out: BaF3(WT); BaF3 WT cells, 72 h treatment, CCK-8 readout OD 450 nm
Experimental: (§1) The anti-proliferative effect of representative compounds of the present disclosure was determined by a water-soluble tetrazolium (WST)-based assay using Cell Counting Kit-8 (CCK-8). Cells were seeded in 96-well plates and treated with different concentrations of test articles for 72 h. Each treatment was tested in triplicate. Briefly, a series of 9 concentrations were chosen for each test article and added at 100 μl/well into a 96-well plate. Each concentration was tested in triplicate. 100 μl of diluent was added into 3-6 wells in the same plate for cell control group, and another set of 3-6 wells was used as a blank control.
(§2) In each well, 100 μl of cell suspension (containing optimal cell numbers, which creates approximately 100% confluence of cells in control wells based on by the absorbance (OD) value) was dispensed into the same 96-well plate except for the blank well. The plate was then cultured at 37° C. in an incubator in an atmosphere with 5% CO2 for 72 h. At the end of the treatments, 20 μl/well of CCK-8 reagent was directly added to each well. The plate was then incubated at 37° C. in an incubator in an atmosphere with 5% CO2 for 2-4 hours.
(§3) The cells viability was calculated using the mean OD value of triplicated wells following the equation below: (OD sample−OD blank)/(OD cell control−OD blank)×100 IC50 values were calculated with Graphpad Prism 6.0 software using nonlinear regression (curve fitting) type data analysis.

[2] = target: BaF3 (T315I mutant) (Homo sapiens, UniProt P00519, T315I, cells depend on it); test: WST (CCK-8) anti-proliferative assay, BaF3 T315I mutant; conditions: read-out: BaF3 (T315I mutant), 72 h treatment, CCK-8 readout OD 450 nm
Experimental: as §1, §2, §3

Row | Structure (SMILES) | GI50 [1] | GI50 [2]
1 | CC(C)N1c2c(-c3ccn[nH]3)cc(C(=O)Nc3ccc(OC(F)(F)Cl)cc3)cc2C2CCC(O)C21 (stereo not shown) [Compound 1, N-(4-(chlorodifluoromethoxy)phenyl)-3-hydroxy-4-isopropyl-5-(1H-pyrazol-5-yl)-1,2,3,3a,4,8b-hexahydrocyclopenta[b]indole-7-carboxamide] | 17 nM | 192 nM
2 | CC(C)N1c2c(-c3ccn[nH]3)cc(C(=O)Nc3ccc(OC(F)(F)Cl)cc3)cc2C2CCCC21 (stereo not shown) [Compound 2, N-(4-(chlorodifluoromethoxy)phenyl)-4-isopropyl-5-(1H-pyrazol-5-yl)-1,2,3,3a,4,8b-hexahydrocyclopenta[b]indole-7-carboxamide] | 15 nM | 354 nM
3 | CC(C)N1c2c(-c3ccn[nH]3)cc(C(=O)Nc3ccc(OC(F)(F)Cl)cc3)cc2C2CC(O)C(O)C21 (stereo not shown) [Compound 3, N-(4-(chlorodifluoromethoxy)phenyl)-2,3-dihydroxy-4-isopropyl-5-(1H-pyrazol-5-yl)-1,2,3,3a,4,8b-hexahydrocyclopenta[b]indole-7-carboxamide] | 36 nM | 177 nM
4 | CC(=O)NC1CCC2c3cc(C(=O)Nc4ccc(OC(F)(F)Cl)cc4)cc(-c4ccn[nH]4)c3N(C(C)C)C12 (stereo not shown) [Compound 4, 3-acetamido-N-(4-(chlorodifluoromethoxy)phenyl)-4-isopropyl-5-(1H-pyrazol-5-yl)-1,2,3,3a,4,8b-hexahydrocyclopenta[b]indole-7-carboxamide] | 14 nM | 71 nM
5 | CC(=O)N[C@@H]1CC[C@H]2c3cc(C(=O)Nc4ccc(OC(F)(F)Cl)cc4)cc(-c4ccn[nH]4)c3N(C(C)C)[C@@H]12 [Compound 4-A, (3R,3aR,8bS)-3-acetamido-N-(4-(chlorodifluoromethoxy)phenyl)-4-isopropyl-5-(1H-pyrazol-5-yl)-1,2,3,3a,4,8b-hexahydrocyclopenta[b]indole-7-carboxamide] | 3 nM | 35 nM
6 | CC(=O)N[C@H]1CC[C@@H]2c3cc(C(=O)Nc4ccc(OC(F)(F)Cl)cc4)cc(-c4ccn[nH]4)c3N(C(C)C)[C@H]12 [Compound 4-B, (3S,3aS,8bR)-3-acetamido-N-(4-(chlorodifluoromethoxy)phenyl)-4-isopropyl-5-(1H-pyrazol-5-yl)-1,2,3,3a,4,8b-hexahydrocyclopenta[b]indole-7-carboxamide] | 535 nM | 1270 nM
7 | CNS(=O)(=O)NC1CCC2c3cc(C(=O)Nc4ccc(OC(F)(F)Cl)cc4)cc(-c4ccn[nH]4)c3N(C(C)C)C12 (stereo not shown) [Compound 5] | 34 nM | 144 nM
8 | CC(C)N1c2c(-c3ccn[nH]3)cc(C(=O)Nc3ccc(OC(F)(F)Cl)cc3)cc2C2CCC(NS(C)(=O)=O)C21 (stereo not shown) [Compound 6] | 67 nM | 154 nM
9 | CC(C)C(=O)NC1CCC2c3cc(C(=O)Nc4ccc(OC(F)(F)Cl)cc4)cc(-c4ccn[nH]4)c3N(C(C)C)C12 (stereo not shown) [Compound 7] | 14 nM | 142 nM
10 | COCC(=O)NC1CCC2c3cc(C(=O)Nc4ccc(OC(F)(F)Cl)cc4)cc(-c4ccn[nH]4)c3N(C(C)C)C12 (stereo not shown) [Compound 9] | 17 nM | 206 nM
11 | CC(C)N1c2c(-c3ccn[nH]3)cc(C(=O)Nc3ccc(OC(F)(F)Cl)cc3)cc2C2CCC(NC(=O)N3CCOCC3)C21 (stereo not shown) [Compound 10] | 31 nM | 29 nM
12 | CNC(=O)NC1CCC2c3cc(C(=O)Nc4ccc(OC(F)(F)Cl)cc4)cc(-c4ccn[nH]4)c3N(C(C)C)C12 (stereo not shown) [Compound 11] | 53 nM | 64 nM
13 | CC(C)N1c2c(-c3ccn[nH]3)cc(C(=O)Nc3ccc(OC(F)(F)Cl)cc3)cc2C2CCC(NS(=O)(=O)N(C)C)C21 (stereo not shown) [Compound 12] | 10 nM | 216 nM
14 | CC(C)N1c2c(-c3ccn[nH]3)cc(C(=O)Nc3ccc(OC(F)(F)Cl)cc3)cc2C2CCC(NS(=O)(=O)N3CCOCC3)C21 (stereo not shown) [Compound 13] | 12 nM | 122 nM
15 | CC(C)N1c2c(-c3ccn[nH]3)cc(C(=O)Nc3ccc(OC(F)(F)Cl)cc3)cc2C2CCC(NC(=O)N3CCN(C)CC3)C21 (stereo not shown) [Compound 14] | 41 nM | 208 nM
16 | CC(C)N1c2c(-c3ccn[nH]3)cc(C(=O)Nc3ccc(OC(F)(F)Cl)cc3)cc2C2CCC(NS(=O)(=O)N3CCN(C)CC3)C21 (stereo not shown) [Compound 15] | 35 nM | 346 nM
17 | CC(C)N1c2c(-c3ccn[nH]3)cc(C(=O)Nc3ccc(OC(F)(F)Cl)cc3)cc2C2CCC(NS(=O)(=O)N3CCCCC3)C21 (stereo not shown) [Compound 16] | 12 nM | 252 nM
18 | CC(C)N1c2c(-c3ccn[nH]3)cc(C(=O)Nc3ccc(OC(F)(F)Cl)cc3)cc2C2CCC(NS(=O)(=O)c3nnc[nH]3)C21 (stereo not shown) [Compound 17] | 1060 nM | 1670 nM

Row | Structure (SMILES) | GI50 [1] | GI50 [2]
19 | COCCS(=O)(=O)NC1CCC2c3cc(C(=O)Nc4ccc(OC(F)(F)Cl)cc4)cc(-c4ccn[nH]4)c3N(C(C)C)C12 (stereo not shown) [Compound 18] | 13 nM | 126 nM
20 | CC(C)NS(=O)(=O)NC1CCC2c3cc(C(=O)Nc4ccc(OC(F)(F)Cl)cc4)cc(-c4ccn[nH]4)c3N(C(C)C)C12 (stereo not shown) [Compound 19] | 6 nM | 97 nM
21 | CC(=O)N[C@@H]1CC[C@H]2c3cc(C(=O)Nc4ccc(OC(F)(F)Cl)cc4)cc(-c4cncnc4)c3N(C(C)C)[C@@H]12 [Compound 20-A, (3R,3aR,8bS)-3-acetamido-N-(4-(chlorodifluoromethoxy)phenyl)-4-isopropyl-5-(pyrimidin-5-yl)-1,2,3,3a,4,8b-hexahydrocyclopenta[b]indole-7-carboxamide] | 42 nM | 29 nM
22 | CC(=O)N[C@H]1CC[C@@H]2c3cc(C(=O)Nc4ccc(OC(F)(F)Cl)cc4)cc(-c4cncnc4)c3N(C(C)C)[C@H]12 [Compound 20-B, (3S,3aS,8bR)-3-acetamido-N-(4-(chlorodifluoromethoxy)phenyl)-4-isopropyl-5-(pyrimidin-5-yl)-1,2,3,3a,4,8b-hexahydrocyclopenta[b]indole-7-carboxamide] | 365 nM | 1380 nM
23 | CC(=O)NC1CCC2c3cc(C(=O)Nc4ccc(OC(F)(F)Cl)cc4)cc(-c4cncnc4)c3N(C(C)C)C12 (stereo not shown) [Compound 20] | 9 nM | 44 nM
24 | CC(=O)NC1CCC2c3cc(C(=O)Nc4ccc(OC(F)(F)Cl)cc4)cc(-c4ccncc4)c3N(C(C)C)C12 (stereo not shown) [Compound 21] | 27 nM | 176 nM
25 | CC(=O)N[C@@H]1CC[C@H]2c3cc(C(=O)Nc4ccc(OC(F)(F)Cl)cc4)cc(-c4ccn[nH]4)c3N(CC(C)(C)C)[C@@H]12 [Compound 22-A, (3R,3aR,8bS)-3-acetamido-N-(4-(chlorodifluoromethoxy)phenyl)-4-neopentyl-5-(1H-pyrazol-5-yl)-1,2,3,3a,4,8b-hexahydrocyclopenta[b]indole-7-carboxamide] | 3 nM | 21 nM
26 | CC(=O)N[C@H]1CC[C@@H]2c3cc(C(=O)Nc4ccc(OC(F)(F)Cl)cc4)cc(-c4ccn[nH]4)c3N(CC(C)(C)C)[C@H]12 [Compound 22-B, (3S,3aS,8bR)-3-acetamido-N-(4-(chlorodifluoromethoxy)phenyl)-4-neopentyl-5-(1H-pyrazol-5-yl)-1,2,3,3a,4,8b-hexahydrocyclopenta[b]indole-7-carboxamide] | 482 nM | 1010 nM
27 | CC(=O)NC1CCC2c3cc(C(=O)Nc4ccc(OC(F)(F)Cl)cc4)cc(-c4ccn[nH]4)c3N(CC(C)(C)C)C12 (stereo not shown) [Compound 22] | 3 nM | 21 nM
28 | CC(=O)NC1CCC2c3cc(C(=O)Nc4ccc(OC(F)(F)Cl)cc4)cc(-c4ccn[nH]4)c3N(CC(C)C)C12 (stereo not shown) [Compound 23] | 10 nM | 81 nM
29 | CC(C)N1c2c(-c3ccn[nH]3)cc(C(=O)Nc3ccc(OC(F)(F)Cl)cc3)cc2C2CCC(NS(=O)(=O)C3CC3)C21 (stereo not shown) [Compound 24] | 17 nM | 114 nM
30 | CC(C)N1c2c(-c3ccn[nH]3)cc(C(=O)Nc3ccc(OC(F)(F)Cl)cc3)cc2C2CCC(NS(=O)(=O)C3CCOCC3)C21 (stereo not shown) [Compound 25] | 15 nM | 183 nM
31 | CC(=O)N[C@@H]1CC[C@H]2c3cc(C(=O)Nc4ccc(OC(F)(F)Cl)cc4)cc(-c4cccnc4)c3N(C(C)C)[C@@H]12 [Compound 26-A, (3R,3aR,8bS)-3-acetamido-N-(4-(chlorodifluoromethoxy)phenyl)-4-isopropyl-5-(pyridin-3-yl)-1,2,3,3a,4,8b-hexahydrocyclopenta[b]indole-7-carboxamide] | 6 nM | 41 nM
32 | CC(=O)N[C@H]1CC[C@@H]2c3cc(C(=O)Nc4ccc(OC(F)(F)Cl)cc4)cc(-c4cccnc4)c3N(C(C)C)[C@H]12 [Compound 26-B, (3S,3aS,8bR)-3-acetamido-N-(4-(chlorodifluoromethoxy)phenyl)-4-isopropyl-5-(pyridin-3-yl)-1,2,3,3a,4,8b-hexahydrocyclopenta[b]indole-7-carboxamide] | 186 nM | 956 nM
33 | CC(=O)NC1CCC2c3cc(C(=O)Nc4ccc(OC(F)(F)Cl)cc4)cc(-c4cccnc4)c3N(C(C)C)C12 (stereo not shown) [Compound 26] | 12 nM | 65 nM
34 | CC(C)N1c2c(-c3ccn[nH]3)cc(C(=O)Nc3ccc(OC(F)(F)Cl)cc3)cc2C2CCC(NC(=O)C3CCNCC3)C21 (stereo not shown) [Compound 27] | 1240 nM | 5060 nM
35 | CCOC(=O)NC1CCC2c3cc(C(=O)Nc4ccc(OC(F)(F)Cl)cc4)cc(-c4ccn[nH]4)c3N(C(C)C)C12 (stereo not shown) [Compound 28] | 19 nM | 168 nM

— US11987575B2, “Tricyclic compounds as BCR-ABL inhibitors” (ASCENTAGE PHARMA (SUZHOU) CO., LTD., priority 2019, dated 2024)
